Laboratory results taken from patent publication US20190018003A1, “TUMOR DISCRIMINATION METHOD, DIAGNOSTIC AGENT FOR TUMOR, AND SENSITIZER FOR TUMOR DIAGNOSIS” (TOTO LTD., priority 2017, published 2019).

Assays:
[1] = system: WI-38 immortalized normal cells; assay: Discrimination test, fluorescence in WI-38 immortalized normal cells after ALA and particles (separate plates); type: cell-based, human; conditions: Example 10; WI-38 cell line; ALA 2 mmol/l, particles 0.001 w/v %
Method: Immortalized cell line WI-38 cells (WI-38 VA13 sub 2 RA, JCRB9057) of normal diploid fibroblast cell line WI-38 were prepared. This cell line was subcultured in an MEM medium (MEM, GlutaMAX™ supplement (Thermo Fisher Scientific), 10 v/v % FBS (Thermo Fischer Scientific)). The cultured cells which reached a logarithmic growth phase 3 days or 4 days later were peeled off with Trypsin/EDTA (Thermo Fisher Scientific) and, after the reaction was terminated in an MEM medium, centrifuged. The cell pellet obtained was suspended in an MEM medium. The cell suspension was subjected to measurement of cell density, inoculated onto a 6-well plate at a density of 5.0×10^4 cells/2 ml/well, and cultured for 3 days.
An aqueous ALA solution (50 mmol/l) was mixed into an MEM medium (MEM, GlutaMAX™ supplement (Thermo Fisher Scientific)) to form a 2 mmol/l ALA solution. Further, an aqueous solution of light scattering particles (2) (ii) was mixed into an MEM medium to form a 0.001 w/v % light scattering particle solution.
The media of the T24 cells and the WI-38 cells on 6-well plates, obtained in Example 3, were respectively removed by an aspirator, and detection was performed in the same manner as in Example 4, and relative fluorescence intensities were calculated.

[2] = system: UM-UC-3 urinary bladder cancer cells; assay: Fluorescence enhancement in UM-UC-3 cells detected by optical spectral detector (635 nm); type: cell-based, human; conditions: Example 17, ALA 2 mmol/l, particles 0.001 w/v %, 405 nm excitation, 635 nm detection, immediately after light irradiation
Excerpt: An aqueous ALA solution (50 mmol/l) was mixed into an E-MEM medium (ATCC-formulated Eagle's Minimum Essential Medium (ATCC)) to form a 2 mmol/l ALA solution. Further, aqueous solutions of light scattering particles (2) (ii) and 3 (ii) were mixed into an E-MEM medium to respectively form a light scattering particle solution having a concentration of 0.001 w/v %.
The medium of the UM-UC-3 cells on a 6-well plate, obtained in Example 3, was removed by an aspirator, and evaluation thereof was performed under the same conditions as in Example 5 and the solution was used for detection.
Detection was performed by using an optical spectral detector (USB 2000, a small sized fiber optical spectroscope, Ocean Optics) at room temperature in a dark place. […] Fluorescence generated therefrom was passed through a collimate lens disposed on the upper surface in a 50° direction, the collimate lens having a focal distance of 10.9 mm and a numerical aperture of 0.25 (F220SMA-A, Thorlabs) and, further, through an optical fiber (M59L01, Thorlabs) of φ=1 mm and a numerical aperture of 0.5, and was detected by the above optical spectral detector. […] And, by obtaining a difference in each measurement sample by subtracting the background intensity value from an intensity value of the measurement sample at a wavelength of 635 nm, the fluorescence detection intensity was calculated. […]

Which Relative fluorescence intensity [1] does the source give for `NCC(=O)CCC(=O)O` [fluorescent dye, 5-aminolevulinic acid] here?
Its Relative fluorescence intensity is 0.7.

What about the “Relative detected fluorescence intensity” value [2] of the same compound?
Its value is 1.0.
